This is an account of results in patent US12691100B2, “NMT inhibitor treatment of a senescence-associated disease or disorder of the liver” (Imperial College Innovations Limited, priority 2020, dated 2026).

Data set [1] deals with HCT116. As to the kind of experiment: Senescence induction by chemotherapeutic drugs (BrdU, SA-β-Galactosidase, p21CIP1). The data set is classed as cell-based, human. Particulars: 7 days after treatment, doxorubicin 100 nM, etoposide 2 μM, cisplatin 100 μM; for BrdU incorporation (cell division): FIG. 6A; for SA-β-Galactosidase activity / p21^CIP1 expression: FIGS. 6B-C. How it is done: (§1) IMR90 cells were used to generate inducible ER:RAS (hereinafter iRAS) cells to model Oncogene induced senescence (OIS), through retroviral infection of pLNC-ER:RAS-neo into IMR90 cells followed by selection with Neomycin. IMR90 cells containing the pLNC-ER:RAS plasmid backbone pLXSN were infected in parallel to assess leakiness in the pLNC-ER:RAS system. Treatment with 100 nM 4OHT (Sigma, in DMSO) was used to induce IMR90 ER:RAS cells to undergo oncogene induced senescence (OIS). Therapy induced senescence (TIS) was induced in IMR90 cells by treatment with 33 μM (50 ug/ml) bleomycin sulphate (Generon, HY-17565) for 24 hours, 20 μM palbociclib (Selleckchem, S1116) for 7 days or 100 nM doxorubicin (Cayman chemical, 15007) for 7 days. Senescence was induced in SK-HEP-1 cells by treatment with 2 μM etoposide (Sigma-Aldrich, E1383) for 7 days (FIGS. 4A-C). HCT-116 senescence was induced by 250 nM treatment with doxorubicin (Cayman chemical, 15007) for 48 hours followed by 5 days culture in media without chemotherapy (FIG. 5), or by treatment with 100 nM doxorubicin, 2 μM etoposide or 100 μM cisplatin for 3 days followed by 4 days culture in media without chemotherapy (FIGS. 6A-7C). Senescence was induced in MCF7 by 200 nM treatment with doxorubicin for 7 days, 2 μM etoposide for 7 days or 10 μM cisplatin for 7 days (FIGS. 8A-9C).
(§2) BrdU Incorporation—Cell proliferation was assessed through incorporation of nucleotide analogue 5-Bromo-2′-deoxyuridine (BrdU) into cells. 2×10^3 or 8×10^3 IMR90 cells were seeded into 96-well plates in duplicate for DMSO/palbociclib treated and bleomycin/doxorubicin treated cells respectively. 10 μM BrdU was added to cells 18 h before desired time point and wells were then washed in PBS and fixed using 4% paraformaldehyde (w/v, PBS) for 45 minutes to 1 hour before removal and washing 3 times with PBS. BrdU incorporation was assessed via immunofluorescence and high-content analysis (see section ‘Immunofluorescence & High throughput microscopy’).
(§3) Immunofluorescence staining was carried out by first fixing wells of 96 well plate at desired timepoint for 1 hour using 4% PFA (w/v, in PBS) followed by washing 3 times with PBS. Wells were then permeabilized using 0.2% Triton® X-100 (v/v, PBS) for 10 min or with 0.5% Triton® X-100 (v/v, PBS) for COPI staining. Wells were then washed twice with PBS to halt permeabilization and then non-specific antibody binding blocked by incubation with a blocking solution for 1 hour at RT. Blocking solution contained 1% BSA (w/v, PBS) supplemented with 0.4% Fish Skin Gelatin (v/v, PBS). Primary antibodies were diluted in respective blocking solution (see ‘Antibodies’ for dilutions), blocking solution removed from well and incubated with primary antibody solution for 1 hour at RT. For BrdU staining primary antibody solution is supplemented with 0.5 U/ul DNase (Sigma) and 1 mM MgCl2 and incubation times reduced to 30 minutes. Following incubation, primary antibody was then removed by washing 3 times with PBS. Secondary antibodies conjugated to Alexa-594 or Alexa-488 fluorophores were then diluted in blocking solution added to wells to be incubated in dark for 1 hour. Secondary antibody was then removed by washing 3 times with PBS and nuclei counterstaining with 1 μg/mL DAPI (w/v, PBS) for 10 minutes. Wells were then washed with PBS three times.
In a second experiment, HCT116 were treated with doxorubicin, etoposide or cisplatin (to induce senescence) or DMSO (as a control). 7 days after treatment, BrdU incorporation (to assess cell division), SA-β-Galactosidase activity and p21^CIP1 expression (as markers of senescence) were analysed. […] Media and compounds were replenished after 72 h of treatment and cultured for 48 h more before fixation and measurement of survival via high-throughput microscopy. DMSO/Doxorubicin/Etoposide (n=4), Cisplatin (n=1).
For orientation: Dividing cells build labelled thymidine or BrdU into new DNA.

Data set [2] deals with MCF7 cancer cells. The data set is described as above. The data set is classed as cell-based. Particulars: 7 days after treatment, doxorubicin 200 nM, etoposide 2 μM, cisplatin 10 μM; for BrdU incorporation (cell division): FIG. 8A; for SA-β-Galactosidase activity / p21^CIP1 expression: FIGS. 8B-C. The method, then:
as §1, §2, §3
MCF7 cancer cells were treated with doxorubicin, etoposide or cisplatin (to induce senescence) or DMSO (as a control). 7 days after treatment, analysed BrdU incorporation (to assess cell division), SA-β-Galactosidase activity and p21^CIP1 expression (as markers of senescence) were analysed. […] Media and compounds were replenished after 72 h of treatment and cultured for 48 h more before fixation and measurement of survival via high-throughput microscopy. DMSO/Doxorubicin/Etoposide (n=3), Cisplatin (n=2).

For data set [3], the system named is IMR90 ER:RAS cells. As to the kind of experiment: Senolytic activity under IRE1 inhibition with KIRA6. In kind it is cell-based, human. The note with it: 600 nM KIRA6 from day 4 post-induction; Compound 1 or 2 from day 7; read at day 12; FIGS. 15A-B. How it is done: High-throughput microscopy survival assay—To assess senolytic effect of drugs, cells were cultured for 7 days, culture media was changed to DM0.5 media and drugs in DMSO were added (<5% v/v final concentration), drugs were replenished after 3 days if assay length was longer than 72 h. Wells were fixed in 4% PFA for 1 hour at day 10 to 14, washed 3 times with PBS and then stained with 1 μg/mL DAPI (w/v, PBS) for 10 minutes. Wells were then washed 3 times with PBS. Optionally plates could be stored at 4° C. for up to 2 weeks and DAPI stained. Image acquisition of DAPI stained cells was performed on an automated InCell Analyser 2000 (GE Healthcare®) and high-content analysis on the InCell Investigator 2.7.3 software used to quantify number of DAPI positive cells per well. A top-hat method was used to segment cell-nuclei based on DAPI stained area and a minimum nuclear area threshold of 80 μm used to exclude debris. For cancer cell lines, nuclear area threshold was reduced to 40 μm. Survival was measured as cell counts relative to DMSO treated quiescent or senescent cells.
To investigate whether the activation of UPR caused by NMT inhibition in senescent cells was responsible for the senolytic potential of NMT inhibitors, cells were treated with KIRA6, a selective inhibitor of IRE1, a kinase necessary for the UPR. IMR90 ER:RAS cells undergoing senescence (after induction with 4OHT), were treated with 600 nM KIRA6 (an IRE1 inhibitor) on day 4 post-induction. On day 7 post-induction, cells were treated with Compound 1 or 2 and 600 nM KIRA6. […] Both NMT inhibitor and Kira6 were replenished 3 days after addition of NMT inhibitor (at day 10 post-induction). Data is shown as mean±SD, n represents independent biological experiments.

The conditions of data set [4]: literature: Wilson, O'Connor et al. 2010; cited from earlier work.

As to `COc1cccc2c1C(=O)c1c(O)c3c(c(O)c1C2=O)C[C@@](O)(C(=O)CO)C[C@@H]3O[C@H]1C[C@H](N)[C@H](O)[C@H](C)O1` [doxorubicin], in data set [1], the “BrdU incorporation (cell division)” value was “stopped proliferating”, the SA-β-Galactosidase activity result is “upregulated” and the “p21^CIP1 expression” value is listed as “upregulated”. Further, in data set [2], the “BrdU incorporation (cell division)” value is listed as “stopped proliferating”, the SA-β-Galactosidase activity entry is “upregulated” and the “p21^CIP1 expression” value is “upregulated”.
As to `COc1cc([C@@H]2c3cc4c(cc3[C@@H](O[C@@H]3O[C@@H]5CO[C@@H](C)O[C@H]5[C@H](O)[C@H]3O)[C@H]3COC(=O)[C@H]23)OCO4)cc(OC)c1O` [etoposide], in data set [1], the “BrdU incorporation (cell division)” value is “stopped proliferating”, the SA-β-Galactosidase activity result is recorded as “upregulated” and the “p21^CIP1 expression” value is “upregulated”. For the same molecule, in data set [2], the “BrdU incorporation (cell division)” value was “stopped proliferating”, the SA-β-Galactosidase activity result is “upregulated” and the “p21^CIP1 expression” value is on record as “upregulated”.
Take `N.N.[Cl][Pt][Cl]` [cisplatin]: in data set [1], the “BrdU incorporation (cell division)” value was “stopped proliferating”, the SA-β-Galactosidase activity entry was “upregulated” and the “p21^CIP1 expression” value was “upregulated”. Also, in data set [2], the “BrdU incorporation (cell division)” value was “stopped proliferating”, the SA-β-Galactosidase activity result was “upregulated” and the “p21^CIP1 expression” value was “upregulated”.
With `CC(C)(C)c1nc(-c2ccc(NC(=O)Nc3cccc(C(F)(F)F)c3)c3ccccc23)c2c(N)nccn12` [KIRA6, reference compound], the “Effect of KIRA6 on the senolytic activity of NMT inhibitors” value in data set [3] is “prevented the senolytic activity of NMT inhibitors”.
Take `CC1(C)CCC(c2ccc(Cl)cc2)=C(CN2CCN(c3ccc(C(=O)NS(=O)(=O)c4ccc(N[C@H](CCN5CCOCC5)CSc5ccccc5)c(S(=O)(=O)C(F)(F)F)c4)cc3)CC2)C1` [ABT-263]: in data set [4], the Side effects result is “significant neutropenia and thrombocytopenia”.
